Source: article PMC12040169 (PLOS Biology, 2025)

Assay: in vitro
Conditions: human, hela cells, % viability

Row | Structure (SMILES) | viability at 28.5 h, 10 µM [%]
1 | CCOC(=O)c1ccccc1NS(C)(=O)=O [CBK262271] | 101
2 | Cc1cc(NC(=O)CCc2c(C)nc(N3CCOCC3)[nH]c2=O)no1 [CBK305636] | 93.2
3 | CCc1nc2c(OCC3CCCCO3)cccn2c1N(C)C(=O)c1ccc2c(c1)OCO2 (stereo not drawn) [CBK147860] | 82.9
4 | CCCN(CC1CC1)C(=O)Cn1c([C@@H]2CCCO2)cc2cccnc21 [CBK282871] | 94.4
5 | COc1ccc(CCN2CCCN(c3nccc(OCc4ccc(Cl)c(Cl)c4)n3)CC2)cc1OC [CBK083965] | 96.4
6 | C=CCN(C)C(=O)[C@H]1C[C@@H](O)[C@H](O)[C@@H]2N=C(Nc3ccc(Cl)cc3)S[C@@H]21 [CBK288946] | 87
7 | COc1ccc(-c2cc3cccnc3n2CC(=O)NC(C)C)cc1 [CBK285380] | 100
8 | CCCCC(c1cccnc1)N(C)C(=O)c1cc(CC)[nH]c(=O)c1 (stereo not drawn) [CBK307216] | 107
9 | Cc1nccn1CCCn1cncc1-c1ccc2c(c1)CCC(C)N2C (stereo not drawn) [CBK281811] | 91
10 | CC[C@H](Cn1ncc2ccccc2c1=O)NC(=O)c1ccc2c(c1)Sc1ccccc1O2 [CBK286173] | 81.3
11 | O=C(O)c1ccc(NS(=O)(=O)c2ccc(C(F)(F)F)cc2[N+](=O)[O-])cc1 [CBK034063] | 113
12 | Cc1nnc(CCNC2CCN(c3ncnc4c(C)csc34)CC2)s1 [CBK307574] | 84.9
13 | CN(C)c1cccc(-c2cc(NC3CCCCC3)ncn2)c1 [CBK090900] | 109
14 | Cc1ccccc1OCCn1c(=N)n(CC(C)C)c2ccccc21 [CBK265392B] | 94.9
15 | c1cnc(NCc2cc3n(n2)CCN(CC2CCCCO2)C3)cn1 (stereo not drawn) [CBK306891] | 96.4
16 | Nc1nc(SCc2nnc(S)n2-c2ccccc2)nc2sc3c(c12)CCC3 [CBK301216K] | 83.1
17 | Cn1ccnc1Sc1ncccc1C(F)(F)F [CBK093759] | 91.2
18 | COC(=O)Cn1c(=O)n(CCc2ccccc2)c(=O)c2c3c(sc21)CCCC3 [CBK267666] | 98.6
19 | Cc1cc(C(=O)Nc2ccc(S(=O)(=O)Nc3onc(C)c3C)cc2)no1 [CBK268166] | 95.3
20 | O=C(Nc1ccc2c(c1)OCCO2)c1cc(S(=O)(=O)N2CCCCC2)c(Cl)cc1Cl [CBK265790] | 90
21 | CC(C)(C)CC(C)(C)NC(=O)NCCc1cccs1 [CBK038697] | 91.8
22 | CCOC(=O)c1cnn(C2CCCN(Cc3ccc(C#N)o3)C2)c1 (stereo not drawn) [CBK304045] | 116

Row | Structure (SMILES) | viability at 28.5 h, 10 µM [%]
23 | CN1CCCN(c2cncc(-c3ccc(F)c(Cl)c3)n2)CC1 [CBK065297] | 96.4
24 | O=C(Cc1ccccc1)N1CCCC1c1n[nH]cc1-c1ccncc1 (stereo not drawn) [CBK283435] | 85.7
25 | C[C@@H]1CN(c2ccc(C(F)(F)F)c(OCc3ccccc3)n2)CCN1 [CBK003987A] | 94
26 | CCOC(=O)N1CCC(NC(=O)N2CCCCC2CO)CC1 (stereo not drawn) [CBK155991] | 106
27 | Cc1ccc(S(=O)(=O)N2CC[C@@H]3C[C@H](NC(=O)C4CC4C)[C@@H]32)cc1 (stereo partly drawn) [CBK284968] | 90
28 | COc1ccc(NC2=NC(=O)CC(C(=O)Nc3ccc(C)c(C)c3)N2)cc1 (stereo not drawn) [CBK269359] | 104
29 | O=C(c1cncnc1)N1CCC(Cn2cncn2)(C2CCCCC2)CC1 [CBK136823] | 92.7
30 | Oc1ccc(-c2cccc(N3CCN(c4ccccn4)CC3)n2)cc1 [CBK037028] | 103
31 | COc1c(C)cccc1C(=O)N1CCCCC1c1ncc(C(=O)Nc2ccccc2)c(C)n1 (stereo not drawn) [CBK285841] | 89.9
32 | COc1cccc(C2C(C(=O)c3ccc(Br)cc3)=C(O)C(=O)N2CCCN2CCOCC2)c1 (stereo not drawn) [CBK264862] | 103
33 | CC(C)(C)NS(=O)(=O)c1ccc(NC(=O)COc2ccc3ccccc3c2Br)cc1 [CBK267015] | 96.5
34 | CCNC(=O)NC[C@H]1C[C@@H]2CCN1C[C@@H]2c1cc(C2CCCC2)nn1C [CBK288743] | 93.6
35 | COCCCN(Cc1ccccn1)Cc1c(F)cccc1F [CBK282959] | 93.5
36 | COc1ccc(OCC(=O)Nc2ccc3c(c2)nc2n3CCN(Cc3ccccc3)C2)cc1 [CBK266989] | 97.6
37 | CN1CCC(N2CCC[C@H]2c2nc(-c3ccnc(N4CCOCC4)c3)no2)CC1 [CBK288880] | 94.4
38 | CCOc1ccc(-c2ccnc(NCCNC(C)=O)n2)cc1C(=O)O [CBK306898] | 85.1
39 | CCc1nn(CC(=O)N(C)C)c(=O)c2cc3oc(C)cc3n12 [CBK283576] | 114
40 | O=C(O)c1ccc(NC(=O)c2cc(-n3cnnc3)ccc2Cl)cc1 [CBK286613] | 111
41 | O=C(NCCN1CCc2ccccc21)C1CC2C=CC1O2 (stereo not drawn) [CBK283158] | 96.2
42 | CC(=O)Nc1cccc(C(=O)N2CCCC2c2ccncc2)c1 (stereo not drawn) [CBK305080] | 96.5
43 | COc1ccc(N(CC(=O)Nc2cccc3cccnc23)S(=O)(=O)c2ccc(C)cc2)cc1 [CBK263965] | 74
44 | N#Cc1c(F)cccc1NCc1cccnc1 [CBK057053] | 116

Row | Structure (SMILES) | viability at 28.5 h, 10 µM [%]
45 | O=C(c1ccc(F)cc1)N1CCC(c2cc3cnccc3[nH]2)CC1 [CBK283445] | 87.3
46 | Cc1nc(N)nc(NCCC2CCCOC2)c1Cl (stereo not drawn) [CBK307353] | 97.1
47 | O=C(O)c1ccc(NC(=O)c2ccccc2NC(=O)c2cccc(Br)c2)cc1 [CBK265517] | 102
48 | CCOC(=O)CN1CCCN(c2ccnc(OC3CCCCC3)n2)CC1 [CBK083864] | 90.9
49 | O=[N+]([O-])c1cccc(S(=O)(=O)Nc2ccc(C(O)(C(F)(F)F)C(F)(F)F)cc2)c1 [CBK062093] | 102
50 | COC(=O)CCCC(=O)n1c(=O)n(Cc2ccc(S(C)(=O)=O)cc2)c2ccccc21 [CBK106538] | 105
51 | COc1ccccc1NC(=O)COc1ccc(C)cc1[N+](=O)[O-] [CBK269724] | 81.6
52 | COC(=O)c1ccsc1NS(=O)(=O)Cc1ccccc1 [CBK039067] | 108
53 | Cc1nn(C)c(C(=O)Nc2sc3c(c2C#N)CCC(C)C3)c1Br (stereo not drawn) [CBK304212] | 104
54 | O=C(Cc1c[nH]cn1)Nc1ccc2cc[nH]c2c1 [CBK160059] | 95.1
55 | COc1cc(NC(=O)c2cccnc2)c(Cl)cc1NC(=O)c1ccc(Cl)cc1 [CBK033522] | 98.2
56 | Cn1cc(C(=O)O)c(NC(=O)c2ccccc2Cl)n1 [CBK000353] | 95.8
57 | COCC(C)NC(=O)c1cnn2c(C(F)(F)F)cc(-c3cccs3)nc12 (stereo not drawn) [CBK307417] | 104
58 | CC(=O)Nc1cccc(NC(=O)c2cnc3sc(C)cn3c2=O)c1 [CBK287715] | 92
59 | CN1CCN(CCP(=O)(c2ccccc2)c2ccccc2)CC1 [CBK020260] | 94.1
60 | CSc1ncc(Cl)c(C(=O)Nc2sc3c(c2C(=O)NCc2ccccc2)CCCC3)n1 [CBK268976] | 99.5
61 | Cc1nn(CCn2cncc2-c2cnn(C)c2)c(C)c1C [CBK281783] | 83.7
62 | Cc1cnc2[nH]c(C3CC3)c(CN3CC(C)OC(C)C3)c2c1 (stereo not drawn) [CBK284741] | 91.8
63 | O=C(Nc1snnc1-c1ccc(Cl)cc1)c1ccc(OC(F)(F)F)cc1 [CBK153247] | 70.5
64 | Cc1ccc(OCC(=O)Nc2ccc3c(c2)nc2n3CCOC2)cc1 [CBK288005] | 102
65 | CN(C(=O)C1CCc2nn(C)c(=O)n2C1)C1Cc2ccccc2C1 (stereo not drawn) [CBK307108] | 107
66 | O=C1CC(SCCc2nc3ccccc3[nH]2)C(=O)N1c1cccc(F)c1 (stereo not drawn) [CBK266671] | 94.6

Row | Structure (SMILES) | viability at 28.5 h, 10 µM [%]
67 | O=C(N[C@H]1CO[C@H]2[C@@H]1OC[C@@H]2n1cc(-c2ccccn2)nn1)c1ccc(C(F)(F)F)cc1 [CBK289507] | 89.7
68 | CCCc1cc(C(N)=O)cc(CCC)c1OCC [CBK015537] | 98
69 | O=C(O)CCNc1nc(Cc2ccccc2)nc2sc3c(c12)CCCC3 [CBK265345] | 93.4
70 | O=C(CC1CCCC1)N1CCC(c2cc(CCOc3cccc(C(F)(F)F)c3)[nH]n2)C1 (stereo not drawn) [CBK286267] | 89.4
71 | CCCn1nc(C)c(-c2cncn2CCn2nc(C)c(C)c2C)c1C [CBK281444] | 83.5
72 | CCc1c(C(=O)NCc2cccnc2-n2cncn2)cnn1-c1ccc(OC)nn1 [CBK298309] | 90.5
73 | O=C(Nc1cccc(N2CCNCC2)c1)c1ccccc1 [CBK028255T] | 114
74 | O=C(Nc1cnn(C23CC4CC(CC(C4)C2)C3)c1)c1cnn2c(C(F)(F)F)cc(-c3ccco3)nc12 [CBK268538] | 52.4
75 | CCCN(CC(=O)NCc1ccco1)Cc1nnc(-c2ccco2)o1 [CBK305302] | 111
76 | O=C(NC(=S)N1CCN(c2ccc([N+](=O)[O-])c(N3CCOCC3)c2)CC1)c1cc2ccccc2o1 [CBK268335] | 109
77 | O=C(O)c1cccc(-c2cnc(NCC3CC3)c(C(=O)NCC(F)(F)F)c2)c1 [CBK106420] | 117
78 | Cc1cc(COc2nccnc2N2CCN(CC(N)=O)CC2)no1 [CBK084192] | 91
79 | O=C1CCC(=O)N1CCOc1nccnc1OC1CCN(CCc2c[nH]c3ccccc23)CC1 [CBK084355] | 94.6
80 | COc1ccc(CN2CCCN(C(=O)c3cccc(C#N)c3)CC2)cc1 [CBK305281] | 88.5
81 | NC(=O)C1CCN([C@H]2[C@@H]3OC[C@@H](O3)[C@@H](NCc3ccc(F)cc3)[C@@H]2O)CC1 [CBK288830] | 91.2
82 | COc1ccc(OC)c(CCO)c1 [CBK003033] | 94.4
83 | O=C(O)c1cccc(NS(=O)(=O)c2ccc(Br)cc2F)c1 [CBK155691] | 95.6
84 | Cc1ccc(-n2c3nc(=O)[nH]c(=O)c-3cc3c(Cl)cccc32)c(C)c1 [CBK287965] | 83.3
85 | CCOC(=O)Cn1nc(C)n2c(cc3sc(C)cc32)c1=O [CBK284096] | 82.3
86 | COc1ccccc1/C=C/CN1CCNC(=O)C1CC(=O)O (stereo not drawn) [CBK269845] | 100

Same assay, conditions: human, hela cells, % viability, bulk resorufin, single well

Row | Structure (SMILES) | viability at 28.5 h, 10 µM [%]
87 | COc1cccc2c1OC1(CCN(C(=O)C3CCC3)CC1)OC2 [CBK061168] | 85.4
